Experimental data taken from ChEMBL document CHEMBL3865786, “Scaffold-hopping of bioactive flavonoids: Discovery of aryl-pyridopyrimidinones as potent anticancer agents that inhibit catalytic role of topoisomerase IIα” (Eur J Med Chem, 2016).
Calls of active or inactive are those of the source. No cut-off for these calls is given here.

Key:
[1] = Cytotoxicity against human H357 cells assessed as reduction in cell viability after 48 hrs by MTT assay; assay type: functional, cell-based; conditions: H357, 48 h
[2] = Cytotoxicity against human HCT116 cells assessed as reduction in cell viability after 48 hrs by MTT assay; assay type: functional, cell-based; conditions: HCT-116, 48 h
[3] = (§1) Cytotoxicity against HEK293 cells assessed as reduction in cell viability after 48 hrs by MTT assay; assay type: functional; conditions: Homo sapiens, HEK293, 48 h; read-out: LC50 (the source's name)
HEK293 [4] = assay: as §1; assay type: functional; conditions: Homo sapiens
HEK293 [5] = assay: Induction of apoptosis in HEK293 cells assessed as apoptotic cells at 2.4 uM after 48 hrs by Annexin-V/FITC/PI dual staining based flow cytometry (reference value: 0.07 +/- 0.2%); assay type: functional, Homo sapiens
HEK293 [6] = assay: Induction of apoptosis in HEK293 cells assessed as apoptotic cells at 1 uM after 48 hrs by Annexin-V/FITC/PI dual staining based flow cytometry (reference value: 0.07 +/- 0.2%); assay type: functional, Homo sapiens
[7] = Binding affinity to DNA (unknown origin) assessed as hypochromism after 1 hr by UV-Vis absorption spectrophotometric analysis
HEK293 [8] = assay: Induction of apoptosis in HEK293 cells after 48 hrs by Annexin V-FITC/propidium iodide staining based flow cytometry; assay type: functional, cell-based; conditions: Homo sapiens
HEK293 [9] = assay: Induction of apoptosis in HEK293 cells assessed as normal cells at 2.4 uM after 48 hrs by Annexin-V/FITC/PI dual staining based flow cytometry (reference value: 98.2 +/- 1.7%); assay type: functional, Homo sapiens
HEK293 [10] = assay: Induction of apoptosis in HEK293 cells assessed as bubble shaped nuclei after 48 hrs by DAPI staining based fluorescence microscopy; assay type: functional, cell-based; conditions: Homo sapiens
[11] = Cytotoxicity against African green monkey Vero cells assessed as reduction in cell viability after 48 hrs by MTT assay; assay type: toxicity, cell-based; conditions: chlorocebus sabaeus; for CC50 at 48 h: Vero cells, read-out: LC50; for Activity: vero, 48 h
HEK293 [12] = assay: Induction of apoptosis in HEK293 cells assessed as late apoptotic cells at 2.4 uM after 48 hrs by Annexin-V/FITC/PI dual staining based flow cytometry (reference value: 0.82 +/- 0.5%); assay type: functional, Homo sapiens
HEK293 [13] = assay: Induction of apoptosis in HEK293 cells assessed as normal cells at 5 uM after 48 hrs by Annexin-V/FITC/PI dual staining based flow cytometry (reference value: 98.2 +/- 1.7%); assay type: functional, Homo sapiens
[14] = Cytotoxicity against human HeLa cells assessed as reduction in cell viability after 48 hrs by MTT assay; assay type: functional, cell-based
HEK293 [15] = assay: Induction of apoptosis in HEK293 cells assessed as shrinkage after 48 hrs by DAPI staining based fluorescence microscopy; assay type: functional, cell-based; conditions: Homo sapiens
[16] = Cytotoxicity against human MCF7 cells assessed as reduction in cell viability after 48 hrs by MTT assay; assay type: functional, cell-based; conditions: MCF7, 48 h
HEK293 [17] = assay: Induction of apoptosis in HEK293 cells assessed as deformation after 48 hrs by DAPI staining based fluorescence microscopy; assay type: functional, cell-based; conditions: Homo sapiens
HEK293 [18] = assay: Induction of apoptosis in HEK293 cells assessed as early apoptotic cells at 5 uM after 48 hrs by Annexin-V/FITC/PI dual staining based flow cytometry (reference value: 0.19 +/- 1.4%); assay type: functional, Homo sapiens
HEK293 [19] = assay: Induction of apoptosis in HEK293 cells assessed as late apoptotic cells at 1 uM after 48 hrs by Annexin-V/FITC/PI dual staining based flow cytometry (reference value: 0.82 +/- 0.5%); assay type: functional, Homo sapiens
[20] = (§2) Anticlonogenic activity against HEK293 cells assessed as inhibition of colony formation incubated for 48 hrs measured after 6 days by crystal violet staining based assay; assay type: functional; conditions: Homo sapiens, read-out: LC50 (the source's name)
HEK293 [21] = assay: as §2; assay type: functional; conditions: Homo sapiens
HEK293 [22] = assay: Potency index, ratio of etoposide LC50 to compound LC50 for anticlonogenic activity in HEK293 cells; assay type: functional, Homo sapiens
HEK293 [23] = assay: Induction of apoptosis in HEK293 cells assessed as apoptotic cells at 5 uM after 48 hrs by Annexin-V/FITC/PI dual staining based flow cytometry (reference value: 0.07 +/- 0.2%); assay type: functional, Homo sapiens
HEK293 [24] = assay: Induction of apoptosis in HEK293 cells assessed as early apoptotic cells at 1 uM after 48 hrs by Annexin-V/FITC/PI dual staining based flow cytometry (reference value: 0.19 +/- 1.4%); assay type: functional, Homo sapiens
HEK293 [25] = assay: Induction of apoptosis in HEK293 cells assessed as late apoptotic cells at 5 uM after 48 hrs by Annexin-V/FITC/PI dual staining based flow cytometry (reference value: 0.82 +/- 0.5%); assay type: functional, Homo sapiens
HEK293 [26] = assay: Induction of apoptosis in HEK293 cells assessed as early apoptotic cells at 2.4 uM after 48 hrs by Annexin-V/FITC/PI dual staining based flow cytometry (reference value: 0.19 +/- 1.4%); assay type: functional, Homo sapiens
HEK293 [27] = assay: Induction of apoptosis in HEK293 cells assessed as normal cells at 1 uM after 48 hrs by Annexin-V/FITC/PI dual staining based flow cytometry (reference value: 98.2 +/- 1.7%); assay type: functional, Homo sapiens
[28] = Cytotoxicity against human A549 cells assessed as reduction in cell viability after 48 hrs by MTT assay; assay type: functional, cell-based; conditions: A549, 48 h
[29] = molecular target: DNA topoisomerase 2-alpha (Homo sapiens) (UniProt P11388); assay: Inhibition of human DNA topoisomerase 2alpha-mediated decatenation of kinetoplast DNA at 100 uM after 30 mins by agarose gel electrophoresis
Sequence of DNA topoisomerase 2-alpha (Homo sapiens) (P11388 whole entry): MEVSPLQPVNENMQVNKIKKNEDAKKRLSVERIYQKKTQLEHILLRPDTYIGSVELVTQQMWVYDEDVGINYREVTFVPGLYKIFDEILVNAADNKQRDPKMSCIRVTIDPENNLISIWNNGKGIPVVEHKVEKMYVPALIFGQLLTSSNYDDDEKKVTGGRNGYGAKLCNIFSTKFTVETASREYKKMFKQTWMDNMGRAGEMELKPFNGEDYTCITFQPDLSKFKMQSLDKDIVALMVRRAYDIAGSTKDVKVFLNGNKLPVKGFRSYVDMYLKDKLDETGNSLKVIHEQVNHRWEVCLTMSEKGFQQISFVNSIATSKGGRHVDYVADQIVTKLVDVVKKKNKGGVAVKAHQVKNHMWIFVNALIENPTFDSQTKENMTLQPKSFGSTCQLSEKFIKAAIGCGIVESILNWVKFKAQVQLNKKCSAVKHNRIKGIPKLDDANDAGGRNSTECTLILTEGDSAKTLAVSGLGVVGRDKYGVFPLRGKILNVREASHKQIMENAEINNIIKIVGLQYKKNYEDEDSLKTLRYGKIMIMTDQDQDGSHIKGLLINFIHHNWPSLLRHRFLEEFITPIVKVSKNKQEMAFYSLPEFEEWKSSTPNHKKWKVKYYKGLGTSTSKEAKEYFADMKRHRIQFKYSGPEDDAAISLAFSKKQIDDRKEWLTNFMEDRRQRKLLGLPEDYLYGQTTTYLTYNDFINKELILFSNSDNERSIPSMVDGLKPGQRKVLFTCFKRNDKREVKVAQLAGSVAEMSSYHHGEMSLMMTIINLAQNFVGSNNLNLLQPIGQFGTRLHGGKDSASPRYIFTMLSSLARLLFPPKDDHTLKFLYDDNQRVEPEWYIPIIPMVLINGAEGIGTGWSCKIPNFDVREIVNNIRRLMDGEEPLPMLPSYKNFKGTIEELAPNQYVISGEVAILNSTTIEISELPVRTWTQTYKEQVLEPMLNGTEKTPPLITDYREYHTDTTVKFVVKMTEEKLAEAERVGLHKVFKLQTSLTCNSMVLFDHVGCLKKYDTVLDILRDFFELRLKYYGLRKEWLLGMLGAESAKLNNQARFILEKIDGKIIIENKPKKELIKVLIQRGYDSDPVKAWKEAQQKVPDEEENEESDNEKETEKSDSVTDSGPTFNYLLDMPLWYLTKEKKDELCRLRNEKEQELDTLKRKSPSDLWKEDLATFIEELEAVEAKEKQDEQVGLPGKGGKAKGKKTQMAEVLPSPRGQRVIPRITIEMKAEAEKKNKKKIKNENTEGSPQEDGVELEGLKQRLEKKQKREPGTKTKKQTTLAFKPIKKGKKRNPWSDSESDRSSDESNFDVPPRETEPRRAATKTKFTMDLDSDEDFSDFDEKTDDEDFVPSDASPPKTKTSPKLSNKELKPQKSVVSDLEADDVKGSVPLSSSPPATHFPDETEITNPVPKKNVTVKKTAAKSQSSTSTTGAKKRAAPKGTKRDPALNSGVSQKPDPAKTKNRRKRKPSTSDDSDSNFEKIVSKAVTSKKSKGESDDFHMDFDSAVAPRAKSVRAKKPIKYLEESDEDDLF

Row | Compound | IC50 [1] | IC50 [2] | CC50 [3] | Activity (HEK293 [4]) | CC50 at 48 h [11] | Activity [11] | IC50 [14] | IC50 [16] | CC50 [20] | inhibition (HEK293 [21]) | RatioLC50 (HEK293 [22]) | IC50 [28] | Topoisomerase 2-alpha inhibition (active/inactive) [29] | other results
1 | O=c1cc(-c2ccc(Cl)cc2)nc2ccccn12 | 2300 nM | 2500 nM | 2400 nM | Dose-dependent effect | 47500 nM | Dose-dependent effect | 2000 nM | 1800 nM | 2000 nM | Dose-dependent effect | 5 - 10 | 2100 nM | Active | Activity (HEK293 [5]): 0.2%; Activity (HEK293 [6]): 0.66%; Activity [7]: Active; Activity (HEK293 [8]): Dose-dependent effect; Activity (HEK293 [9]): 87%; Activity (HEK293 [10]): Dose-dependent effect; Activity (HEK293 [12]): 12.8%; Activity (HEK293 [13]): 77.6%; Activity (HEK293 [15]): Dose-dependent effect; Activity (HEK293 [17]): Dose-dependent effect; Activity (HEK293 [18]): 0.42%; Activity (HEK293 [19]): 10.83%; Activity (HEK293 [23]): 3.41%; Activity (HEK293 [24]): 0.02%; Activity (HEK293 [25]): 18.56%; Activity (HEK293 [26]): 0%; Activity (HEK293 [27]): 88.48%
2 | O=c1c(-c2cccc(O)c2)cnc2ccccn12 | – | – | 6000 nM | – | 52000 nM | – | – | – | – | – | – | – | Active | –
3 | COc1ccc(-c2cnc3ccccn3c2=O)cc1 | – | – | 19000 nM | – | 38000 nM | – | – | – | – | – | – | – | Active | –
4 | O=c1cc(-c2ccc3c(c2)OCO3)nc2ccccn12 | – | – | 15500 nM | – | 52000 nM | – | – | – | – | – | – | – | Active | –
5 | O=Cc1ccc(-c2cc(=O)n3ccccc3n2)cc1 | 2500 nM | 3500 nM | 3000 nM | Dose-dependent effect | 48000 nM | Dose-dependent effect | 3000 nM | 2500 nM | 2500 nM | Dose-dependent effect | 5 - 10 | 2400 nM | Active | Activity [7]: Active
6 | O=c1c(-c2ccc(O)c(O)c2)cnc2ccccn12 | – | – | 9000 nM | – | 38000 nM | – | – | – | – | – | – | – | Active | –
7 | O=c1cc(-c2ccc(O)c(O)c2)nc2ccccn12 | – | – | 13000 nM | – | 32000 nM | – | – | – | – | – | – | – | Active | –
8 | O=c1c(-c2ccccc2)cnc2c(OCc3ccccc3)cccn12 | 3000 nM | 3000 nM | 3000 nM | Dose-dependent effect | 60000 nM | Dose-dependent effect | 1500 nM | 2000 nM | 3800 nM | Dose-dependent effect | 5 - 10 | 2000 nM | Active | –
9 | COc1cccc(-c2cnc3ccccn3c2=O)c1 | – | – | 9000 nM | – | 46000 nM | – | – | – | – | – | – | – | Active | –
10 | O=c1c(-c2cccc3ccccc23)coc2ccccc12 | – | – | 12000 nM | – | 42000 nM | – | – | – | – | – | – | – | Active | –
11 | Cc1ccc(-c2cnc3ccccn3c2=O)cc1 | 2800 nM | 2500 nM | 3500 nM | Dose-dependent effect | 44000 nM | Dose-dependent effect | 3000 nM | 4000 nM | 2500 nM | Dose-dependent effect | 5 - 10 | 2500 nM | Active | –
12 | COc1cc(-c2coc3ccccc3c2=O)cc(OC)c1OC | – | – | 10000 nM | – | 50000 nM | – | – | – | – | – | – | – | Active | –
13 | O=c1c(-c2cc(O)cc(O)c2)cnc2ccccn12 | 3000 nM | 3000 nM | 2000 nM | Dose-dependent effect | 50000 nM | Dose-dependent effect | 1500 nM | 2000 nM | 2400 nM | Dose-dependent effect | 5 - 10 | 2800 nM | Active | –
